A short description of series [1]: Solubility measurement in chloroform (saturated solution). It counts as physicochemical. The following applies: mass percent concentration of saturated chloroform solution. How it is done:
Solubility was measured by using chloroform as solvent.

Series [2] is described as follows: CV (cyclic voltammetry) measurement in dichloromethane. It counts as physicochemical. The following applies: n-BuN4PF6 0.1 M, Pt electrodes, silver-silver chloride reference, 100 mV/sec. How it is done: CV measurement was conducted by using dichloromethane as solvent, tetrabutylammonium hexafluorophosphate (n-BuN4PF6, 0.1 M) as a supporting electrolyte, platinum wires as working electrodes and counter electrodes, and a silver-silver chloride electrodes as reference electrodes, and by sweeping the electric potential at a rate of 100 mV/sec. In all Compounds 101, 110, 112, 136, 201, 210, 212, 214, and 236, two pairs of oxidation-reduction waves were observed.

As for `CCCCCCCCc1cc2c(=C(C#N)C#N)cc3c(cc(=C(C#N)C#N)c4cc(CCCCCCCC)sc43)c2s1` [Compound 110], in series [1], the Solubility in chloroform amounted to 0.52 w/w %. In series [2], the “first half-wave reduction potential” value was 0.06 V and the “second half-wave reduction potential” value was −0.28 V.
As to `CCCCCCCCCCCCc1cc2c(=C(C#N)C#N)cc3c(cc(=C(C#N)C#N)c4cc(CCCCCCCCCCCC)sc43)c2s1` [Compound 112], the Solubility in chloroform in series [1] came to 0.22 w/w %. In addition, in series [2], the “first half-wave reduction potential” value came out at 0.06 V and the “second half-wave reduction potential” value is given as −0.28 V.
As for `CC(C)[Si](c1cc2c(=C(C#N)C#N)cc3c(cc(=C(C#N)C#N)c4cc([Si](C(C)C)(C(C)C)C(C)C)sc43)c2s1)(C(C)C)C(C)C` [Compound 136], in series [2], the “first half-wave reduction potential” value is listed as 0.06 V and the “second half-wave reduction potential” value is listed as −0.28 V.
Turning to `N#CC(C#N)=c1cc2c3ccsc3c(=C(C#N)C#N)cc2c2ccsc12` [Compound 201], in series [2], the “first half-wave reduction potential” value was found to be 0.06 V and the “second half-wave reduction potential” value was −0.28 V.
`CCCCCCCCc1cc2c(s1)c(=C(C#N)C#N)cc1c3cc(CCCCCCCC)sc3c(=C(C#N)C#N)cc21` [Compound 210]: in series [2], the “first half-wave reduction potential” value was 0.06 V and the “second half-wave reduction potential” value is given as −0.28 V.
Turning to `CCCCCCCCCCCCc1cc2c(s1)c(=C(C#N)C#N)cc1c3cc(CCCCCCCCCCCC)sc3c(=C(C#N)C#N)cc21` [Compound 212], in series [2], the “first half-wave reduction potential” value came to 0.06 V and the “second half-wave reduction potential” value is recorded as −0.28 V.
In the same order, the values of `CCCCCCCCCCCCCCCCc1cc2c(s1)c(=C(C#N)C#N)cc1c3cc(CCCCCCCCCCCCCCCC)sc3c(=C(C#N)C#N)cc21` [Compound 214] are 0.06 V and −0.28 V.

(Values after US9564604B2, “Fused polycyclic aromatic compounds, organic semiconductor material and thin film including the same, and method for producing an organic semiconductor device” (Nippon Kayaku Kabushiki Kaisha, priority 2012, dated 2017).)
